Our source for the IC50 values is patent publication US11001570B2, “6-amino-quinolinone compounds and derivatives as BCL6 inhibitors” (Boehringer Ingelheim International GmbH, priority 2016, dated 2021).

Usually IC50 stands for the concentration needed to halve the response being measured. Read a low IC50 as higher potency.

The test deals with T1, BCL6::BCOR (Homo sapiens, UniProt P41182, C67R/C84N/C8Q).
T1 construct: BCL6 (amino acids 5 to 129, with the following changes to the natural protein); made in house; host or cells: E. coli
Put plainly: BCL6::BCOR ULight TR-FRET assay. In kind it is binding. From the text: Biological Methods BCL6::BCOR ULight TR-FRET Assay:
Biotinylated BCL6 protein corresponding to BCL6 (amino acids 5 to 129, with the following changes to the natural protein: C8Q, C67R, C84N) is expressed in E. coli with a carboxy-terminal Avi tag (amino acid sequence […]). The BCOR ULight peptide uses a direct carboxy-terminal ULight tag (PerkinElmer). The sequence of the peptide is CRSEIISTAPSSWVVPGP, with the amino terminus acetylated and the ULight tag attached to the cysteine. Compounds are dispensed onto assay plates (Proxiplate 384 PLUS, white, PerkinElmer) using an Access Labcyte Workstation with the Labcyte Echo 55×from a DMSO solution. For the chosen highest assay concentration of 100 μM, 150 nl of compound solution are transferred from a 10 mM DMSO compound stock solution. A series of 11 concentrations is transferred for each compound at which each concentration is fivefold lower than the previous one. DMSO is added such that every well has a total of 150 nl compound solution. 5 μL of 1 nM BCL6 protein in assay buffer (50 mM HEPES pH 7.3; 125 mM NaCl; 1 mM GSH; 0.01% Triton-X 100; 0.03% BSA) are added to the 150 nl of compounds. After 30 minutes incubation time at room temperature, 10 μL of a mix containing BCOR ULight peptide (100 nM final assay concentration) and Streptavidin-Europium (0.75 nM final assay concentration) are added. Plates are kept at room temperature. After 240 minutes incubation time the TR-FRET signal is measured in a PerkinElmer Envision HTS Multilabel Reader using the TR-FRET LANCE Ultra specs of PerkinElmer. Each plate contains negative controls (diluted DMSO instead of test compound; BCOR peptide and Streptavidin Europium mix with BCL6 protein) and positive controls (diluted DMSO instead of test compound; BCOR peptide and Streptavidin-Europium mix without BCL6 protein). Negative and positive control values are used for normalization.
(TR-FRET usually uses a lanthanide donor and a delayed reading to cut background.)
As to `C[C@@H]1C[C@H](C)CN(c2ncc(Cl)c(Nc3ccc4c(c3)cc(O[C@H](C)C(=O)O)c(=O)n4C)n2)C1` (relative stereo) [Compound I-154], the IC50 worked out at 82 nM. The same measure for `CNC(=O)COc1cc2cc(Nc3nc(N4C[C@H](C)C[C@@H](C)C4)ncc3Cl)ccc2n(C)c1=O` (single isomer, unassigned) [Compound I-5]: 12 nM. In turn, `CNC(=O)COc1cc2cc(Nc3nc(N4C[C@@H](C)C[C@H](C)C4)ncc3Cl)ccc2n(C)c1=O` (single isomer, unassigned) [Compound I-6] had a half-inhibitory concentration (IC50) of 7 nM. For the molecule `CNC(=O)COc1cc2cc(Nc3nc(N4C[C@H](CO)N[C@@H](C)C4)ncc3Cl)ccc2n(C)c1=O` (single isomer, unassigned) [Compound I-10], the IC50 came to 18 nM. The same measure for `CNC(=O)COc1cc2cc(Nc3nc(N4C[C@@H](CO)N[C@@H](C)C4)ncc3Cl)ccc2n(C)c1=O` (single isomer, unassigned) [Compound I-11]: 13 nM; for `C[C@@H]1C[C@H](C)CN(c2ncc(Cl)c(Nc3ccc4c(c3)cc(OC[S@@+](C)[O-])c(=O)n4C)n2)C1` (single isomer, unassigned) [Compound I-173]: 37 nM; for `C[C@@H]1C[C@H](C)CN(c2ncc(Cl)c(Nc3ccc4c(c3)cc(OC[S+](C)[O-])c(=O)n4C)n2)C1` (single isomer, unassigned) [Compound I-174]: 16 nM. The value for `COC(=O)COc1cc2cc(Nc3nc(N4C[C@H](C)C[C@H](C)C4)ncc3Cl)ccc2n(C)c1=O` [Compound I-1, methyl 2-{[6-({5-chloro-2-[cis-3,5-dimethylpiperidin-1-yl]pyrimidin-4-yl}amino)-1-methyl-2-oxo-1,2-dihydroquinolin-3-yl]oxy}acetate] was 10 nM; that for `COC(=O)COc1cc2cc(Nc3nc(N4CCC(F)CC4)ncc3Cl)ccc2n(C)c1=O` [Compound I-2, methyl 2-[(6-{[5-chloro-2-(4-fluoropiperidin-1-yl)pyrimidin-4-yl]amino}-1-methyl-2-oxo-1,2-dihydro-quinolin-3-yl)oxy]-acetate] was 9 nM; that for `CNC(=O)COc1cc2cc(Nc3nc(N4CCN(CCOC)CC4)ncc3Cl)ccc2n(C)c1=O` [Compound I-3, 2-{[6-({5-chloro-2-[4-(2-methoxyethyl)piperazin-1-yl]pyrimidin-4-yl}amino)-1-methyl-2-oxo-1,2-dihydroquinolin-3-yl]oxy}-N-methylacetamide] was 7 nM. Molecule `CNC(=O)COc1cc2cc(Nc3nc(N4C[C@H](C)C[C@H](C)C4)ncc3Cl)ccc2n(C)c1=O` [Compound I-4, 2-[(6-{[5-chloro-2-(cis-3,5-dimethylpiperidin-1-yl)pyrimidin-4-yl]amino}-1-methyl-2-oxo-1,2-dihydro-quinolin-3-yl)oxy]-N-methylacetamide] gave an IC50 of 3 nM. The same measure for `CNC(=O)COc1cc2cc(Nc3nc(N4C[C@H]5CC[C@@H](C4)O5)ncc3Cl)ccc2n(C)c1=O` [Compound I-7, 2-({6-[(5-chloro-2-{8-oxa-3-azabicyclo[3.2.1]octan-3-yl}pyrimidin-4-yl)amino]-1-methyl-2-oxo-1,2-dihydroquinolin-3-yl}oxy)-N-methylacetamide]: 5 nM. The same measure for `CNC(=O)COc1cc2cc(Nc3nc(N4C[C@H](C)C[C@@H](NC)C4)ncc3Cl)ccc2n(C)c1=O` [Compound I-8, 2-{[6-({5-chloro-2-[(3R,5R)-3-methyl-5-(methylamino)piperidin-1-yl]pyrimidin-4-yl}amino)-1-methyl-2-oxo-1,2-dihydroquinolin-3-yl]oxy}-N-methylacetamide]: 21 nM; for `CNC(=O)COc1cc2cc(Nc3nc(N4C[C@H](CO)N[C@H](C)C4)ncc3Cl)ccc2n(C)c1=O` [Compound I-9, 2-{[6-({5-chloro-2-[(3R,5R)-3-(hydroxymethyl)-5-methylpiperazin-1-yl]pyrimidin-4-yl}amino)-1-methyl-2-oxo-1,2-dihydroquinolin-3-yl]oxy}-N-methylacetamide]: 41 nM; for `CNC(=O)COc1cc2cc(Nc3nc(N4CC(C)NC(CF)C4)ncc3Cl)ccc2n(C)c1=O` (centres unmarked) [Compound I-12, 2-{[6-({5-chloro-2-[3-(fluoromethyl)-5-methylpiperazin-1 yl]pyrimidin-4-yl}amino)-1-methyl-2-oxo-1,2-dihydroquinolin-3-yl]oxy}-N-methylacetamide]: 7 nM.

As for `CNC(=O)COc1cc2cc(Nc3nc(N4CC(C)C(C(=O)N(C)C)C(C)C4)ncc3Cl)ccc2n(C)c1=O` (centres unmarked) [Compound I-13, 1-[5-chloro-4-({1-methyl-3-[(methylcarbamoyl)-methoxy]-2-oxo-1,2-dihydroquinolin-6-yl}amino)pyrimidin-2-yl]-N,N,3,5-tetramethylpiperidine-4-carboxamide], the IC50 came out at 5 nM. The value for `CNC(=O)COc1cc2cc(Nc3nc(N4C[C@H](C(F)(F)F)C[C@H](C(F)(F)F)C4)ncc3Cl)ccc2n(C)c1=O` [Compound I-14, 2-{[6-({2-[cis-3,5-bis(trifluoromethyl)piperidin-1-yl]-5-chloropyrimidin-4-yl}amino)-1-methyl-2-oxo-1,2-dihydroquinolin-3-yl]oxy}-N-methyl-acetamide] was 20 nM; that for `CNC(=O)COc1cc2cc(Nc3nc(N4CCN(c5ccccn5)CC4)ncc3Cl)ccc2n(C)c1=O` [Compound I-15] was 32 nM. In turn, `CNC(=O)COc1cc2cc(Nc3nc(N4CCN(CCN(C)C)C(=O)C4)ncc3Cl)ccc2n(C)c1=O` [Compound I-16] had an IC50 of 10 nM. `CNC(=O)COc1cc2cc(Nc3nc(N4CCCC[C@H]4C)ncc3Cl)ccc2n(C)c1=O` [Compound I-17] came in with an IC50 of 8 nM.

`CNC(=O)COc1cc2cc(Nc3nc(N4CCN(C(=O)CN(C)C)CC4)ncc3Cl)ccc2n(C)c1=O` [Compound I-18] showed a half-inhibitory concentration (IC50) of 7 nM. The same measure for `CNC(=O)COc1cc2cc(Nc3nc(N4CCCCC4)ncc3Cl)ccc2n(C)c1=O` [Compound I-19]: 6 nM; for `CNC(=O)COc1cc2cc(Nc3nc(N4CCN(CCN(C)C)CC4)ncc3Cl)ccc2n(C)c1=O` [Compound I-20]: 6 nM; for `CNC(=O)COc1cc2cc(Nc3nc(N4CCCC(F)CC4)ncc3F)ccc2n(C)c1=O` (centres unmarked) [Compound I-21]: 12 nM. Molecule `CNC(=O)COc1cc2cc(Nc3nc(N4CCC(F)CC4)ncc3F)ccc2n(C)c1=O` [Compound I-22] returned an IC50 of 10 nM. The value for `CNC(=O)COc1cc2cc(Nc3nc(N4C[C@H](C)C[C@H](C)C4)ncc3F)ccc2n(C)c1=O` [Compound I-23] was 9 nM. For the molecule `CNC(=O)COc1cc2cc(Nc3nc(N4CC(C)(C)CC(C)(C)C4)ncc3Cl)ccc2n(C)c1=O` [Compound I-24], the IC50 came out at 13 nM. The value for `CNC(=O)COc1cc2cc(Nc3nc(N4CCC(F)CC4)ncc3Cl)ccc2n(C)c1=O` [Compound I-25] was 4 nM; that for `CNC(=O)COc1cc2cc(Nc3nc(N4CCC(F)(F)CC4)ncc3Cl)ccc2n(C)c1=O` [Compound I-26] was 4 nM; that for `CNC(=O)COc1cc2cc(Nc3nc(N4CCC(F)(F)CC4)ncc3F)ccc2n(C)c1=O` [Compound I-27] was 6 nM. The value for `CNC(=O)COc1cc2cc(Nc3nc(N4CCC(C(=O)N(C)C)CC4)ncc3F)ccc2n(C)c1=O` [Compound I-28] was 12 nM; that for `CNC(=O)COc1cc2cc(Nc3nc(N4CCCC(F)(F)C4)ncc3Cl)ccc2n(C)c1=O` [Compound I-29] was 10 nM; that for `CNC(=O)COc1cc2cc(Nc3nc(N4CCC(C#N)CC4)ncc3Cl)ccc2n(C)c1=O` [Compound I-30] was 5 nM. The value for `CNC(=O)COc1cc2cc(Nc3nc(N4CCC5(CC4)CC5)ncc3Cl)ccc2n(C)c1=O` [Compound I-31] was 6 nM; that for `CNC(=O)COc1cc2cc(Nc3nc(N4CCC(O)(C(F)(F)F)CC4)ncc3Cl)ccc2n(C)c1=O` [Compound I-32] was 5 nM.

The molecule `CNC(=O)COc1cc2cc(Nc3nc(N4CCC(C(F)(F)F)CC4)ncc3Cl)ccc2n(C)c1=O` [Compound I-33] registered an IC50 of 62 nM. `CNC(=O)COc1cc2cc(Nc3nc(N4CCC(Cl)CC4)ncc3Cl)ccc2n(C)c1=O` [Compound I-34] yielded an IC50 of 6 nM. Regarding `CNC(=O)COc1cc2cc(Nc3nc(N4CCC(C)CC4)ncc3Cl)ccc2n(C)c1=O` [Compound I-35], half-maximal inhibition (IC50) was put at 8 nM. The same measure for `CNC(=O)COc1cc2cc(Nc3nc(N4CCC5(CCN(C)CC5)CC4)ncc3Cl)ccc2n(C)c1=O` [Compound I-36]: 5 nM; for `CNC(=O)COc1cc2cc(Nc3nc(N4CCC(N5CCCCCC5)CC4)ncc3Cl)ccc2n(C)c1=O` [Compound I-37]: 7 nM; for `CCN1CCN(C2CCN(c3ncc(Cl)c(Nc4ccc5c(c4)cc(OCC(=O)NC)c(=O)n5C)n3)CC2)CC1` [Compound I-38]: 35 nM.
